Data published in PMC12717099, “Peptidoglycan recruitment by a penicillin binding protein” (Nature Communications, 2025).

Experiments:
PBP5 (PBP5_37-678) = assay: NMR chemical shift perturbation titration (2D [1H,15N] TROSY, 2D [1H,13C] ILV methyl HMQC) of stem peptides / PG into PBP5; type: binding, Enterococcus faecium; settings: peptides up to 1:80 PBP5:SP (SP3 1:1000); PG 1:0.25-1:5
Description: Data was processed using Topspin 4.1.4 (Bruker) and analyzed using NMRFAM-SPARKY 1.3 and Poky (build number 20240829)[20],[21]. The sequence-specific backbone assignment of PBP5 is publicly available at BMRBID 51690.
SPs (SP1 to SP7) were titrated into 0.5 mM (^2H,^15N)-labeled and 0.1 mM (^2H,^15N)/^13C ILV labeled PBP5 at molar ratios of 0:1, 5:1, 10:1, 20:1, 40:1, 60:1, and 80:1 (stem peptide/SP:PBP5; molar ratios). 2D [^1H,^15N] TROSY or 2D [^1H,^13C] HMQC spectra were recorded for each titration point. SPs were solubilized in NMR buffer. Chemical shift perturbations (Δδ) between PBP5 and SP bound PBP5 spectra were calculated using Eq. 1,1 Δδppm=ΔδH^2+ΔδX/Y^2 where, X is ^15N or ^13C and Y is the constant i.e., 10 for ^15N and 4 for ^13C.
Residues with significant CSPs were identified by calculating the standard deviation of all CSPs (σ), then excluding any CSPs larger than average+2σ, recalculating σ as a new corrected σ0, and then repetitively removing CSPs above 2σ0 until no additional CSPs can be removed. CSPs above ≥2σ2 was the statistical threshold for ^1H/^15N backbone CSP analysis and ≥2xσ1 for ^1H/^13C methyl ILV data for the interaction of SP1 with PBP5. The same threshold values were used for all other peptides to allow for direct comparison with the SP1/PBP5 interaction. The identical significance analysis was also performed for PenG/ceftaroline saturated PBP5 (1:8 molar ratio of PBP5 to β-lactam antibiotics was used to ensure saturation of an extended time period needed for the SP titrations) SP interaction studies; CSPs above ≥2σ3 was the statistical threshold for ^1H/^15N backbone CSP analysis and ≥2xσ2 for ^1H/^13C methyl ILV data to identify all residues with a statistically significant change in its chemical shift upon SP interaction.
Residue specific KD values were calculated by using Eq. 2[23],2 CSPobs=CSPmax/2PP+S+KD−P+S+KD^2−4[S][P] where P and S are the concentration of PBP5 and SP1, respectively. CSPobs is the experimentally observed chemical shift value and CSPmax is the largest experimentally observed chemical shift value of the residue. […] The lack of saturation was due to the limited amount of available SP peptide due to their difficult synthesis. Residues used for KD calculation were common residues with statistically significant CSPs in the interaction studies of SP1 and SP2 with PBP5 at a 1:80 ratio.

PBP5 = assay: 1D 1H STD NMR of stem peptides with PBP5; type: binding, Enterococcus faecium; settings: for STD % to SP1: normalised to highest SP1:PBP5 value; for STD amplification factor: protein:peptide 1:100, 2 s saturation, 308 K
Excerpt: Total saturation time for STD measurements was 2 s.
Overlapped peaks were completely excluded from the analysis.

With D-Ala-D-Ala [SP3] the “interaction with PBP5 by CSPs, in words” value (PBP5 (PBP5_37-678)) was “no CSPs were observed”.
In the case of “D-Lac-L-Ala-D-iGln-Gly-D-Ala-D-Ala [SP4, SP with L-Lys(D-iAsn) replaced by Gly]”, the “STD amplification factor as fraction of highest SP1:PBP5 value” (“STD amplification factor as fraction” for short) (PBP5; 1H DA4β, DLacβ) is reported as 0.2081, the “STD % to SP1” value (PBP5; 1H DA4β, DLacβ) is reported as 20.809% and the STD amplification factor (PBP5; 1H DA4β, DLacβ) is reported as 5.599. The “STD amplification factor as fraction” value (PBP5; 1H DA5α) was 0.5864, the “STD % to SP1” value (PBP5; 1H DA5α) was 58.6405% and the STD amplification factor (PBP5; 1H DA5α) was 15.7792. The “STD amplification factor as fraction” value (PBP5; 1H DA5β) was 0.2717, the “STD % to SP1” value (PBP5; 1H DA5β) was 27.1666% and the STD amplification factor (PBP5; 1H DA5β) was 7.3101. The “STD amplification factor as fraction” value (PBP5; 1H DQ2α,Dlacα,DA4α,LA1α) was 0.3132, the “STD % to SP1” value (PBP5; 1H DQ2α,Dlacα,DA4α,LA1α) was 31.3217% and the STD amplification factor (PBP5; 1H DQ2α,Dlacα,DA4α,LA1α) was 8.428. For the same substance, the “STD amplification factor as fraction” value (PBP5; 1H DQ2β (first listed)) was 0.6761, the “STD % to SP1” value (PBP5; 1H DQ2β (first listed)) was 67.6099% and the STD amplification factor (PBP5; 1H DQ2β (first listed)) was 18.1927. The “STD amplification factor as fraction” value (PBP5; 1H DQ2β (second listed)) was 0.8081, the “STD % to SP1” value (PBP5; 1H DQ2β (second listed)) was 80.8137% and the STD amplification factor (PBP5; 1H DQ2β (second listed)) was 21.7457. The “STD amplification factor as fraction” value (PBP5; 1H DQ2γ) was 0.2977, the “STD % to SP1” value (PBP5; 1H DQ2γ) was 29.7735% and the STD amplification factor (PBP5; 1H DQ2γ) was 8.012. For the same substance, the “STD amplification factor as fraction” value (PBP5; 1H G3α) was 0.19, the “STD % to SP1” value (PBP5; 1H G3α) was 19.0039% and the STD amplification factor (PBP5; 1H G3α) was 5.114. The “STD amplification factor as fraction” value (PBP5; 1H LA1β) was 0.2515, the “STD % to SP1” value (PBP5; 1H LA1β) was 25.1468% and the STD amplification factor (PBP5; 1H LA1β) was 6.767. The “interaction with PBP5 by CSPs, in words” value (PBP5 (PBP5_37-678)) was “interacts with PBP5 very poorly”.
With “D-Lac-L-Ala-D-iGln-L-Lys-D-Ala-D-Ala [SP5]” the “STD amplification factor as fraction” value (PBP5; 1H D5α) was 0.4969, the “STD % to SP1” value (PBP5; 1H D5α) was 49.685% and the STD amplification factor (PBP5; 1H D5α) was 13.3694. The “STD amplification factor as fraction” value (PBP5; 1H DA4α,LA1α) was 0.2481, the “STD % to SP1” value (PBP5; 1H DA4α,LA1α) was 24.8062% and the STD amplification factor (PBP5; 1H DA4α,LA1α) was 6.675. For the same substance, the “STD amplification factor as fraction” value (PBP5; 1H DA4β, DLacβ) was 0.2031, the “STD % to SP1” value (PBP5; 1H DA4β, DLacβ) was 20.3132% and the STD amplification factor (PBP5; 1H DA4β, DLacβ) was 5.466. The “STD amplification factor as fraction” value (PBP5; 1H DA5β) was 0.283, the “STD % to SP1” value (PBP5; 1H DA5β) was 28.3024% and the STD amplification factor (PBP5; 1H DA5β) was 7.616. For the same substance, the “STD amplification factor as fraction” value (PBP5; 1H DQ2α,Dlacα) was 0.2004, the “STD % to SP1” value (PBP5; 1H DQ2α,Dlacα) was 20.0424% and the STD amplification factor (PBP5; 1H DQ2α,Dlacα) was 5.393. For the same substance, the “STD amplification factor as fraction” value (PBP5; 1H DQ2β (first listed)) was 0.5843, the “STD % to SP1” value (PBP5; 1H DQ2β (first listed)) was 58.4308% and the STD amplification factor (PBP5; 1H DQ2β (first listed)) was 15.7228. For the same substance, the “STD amplification factor as fraction” value (PBP5; 1H DQ2β (second listed)) was 0.7133, the “STD % to SP1” value (PBP5; 1H DQ2β (second listed)) was 71.3266% and the STD amplification factor (PBP5; 1H DQ2β (second listed)) was 19.1928. The “STD amplification factor as fraction” value (PBP5; 1H DQ2γ) was 0.2744, the “STD % to SP1” value (PBP5; 1H DQ2γ) was 27.4437% and the STD amplification factor (PBP5; 1H DQ2γ) was 7.385. For the same substance, the “STD amplification factor as fraction” value (PBP5; 1H K3α) was 0.381, the “STD % to SP1” value (PBP5; 1H K3α) was 38.104% and the STD amplification factor (PBP5; 1H K3α) was 10.2532. The “STD amplification factor as fraction” value (PBP5; 1H K3β) was 0.5122, the “STD % to SP1” value (PBP5; 1H K3β) was 51.2163% and the STD amplification factor (PBP5; 1H K3β) was 13.7815. For the same substance, the “STD amplification factor as fraction” value (PBP5; 1H K3δ) was 0.5418, the “STD % to SP1” value (PBP5; 1H K3δ) was 54.1786% and the STD amplification factor (PBP5; 1H K3δ) was 14.5786. For the same substance, the “STD amplification factor as fraction” value (PBP5; 1H K3ε) was 0.2671, the “STD % to SP1” value (PBP5; 1H K3ε) was 26.7058% and the STD amplification factor (PBP5; 1H K3ε) was 7.186. The “STD amplification factor as fraction” value (PBP5; 1H LA1β) was 0.2119, the “STD % to SP1” value (PBP5; 1H LA1β) was 21.1895% and the STD amplification factor (PBP5; 1H LA1β) was 5.702. The “interaction with PBP5 by CSPs, in words” value (PBP5 (PBP5_37-678)) was “weaker interaction”.
In the case of “D-Lac-L-Ala-D-nGln-L-Lys(D-iAsn)-D-Ala-D-Ala [SP6]”, the “STD amplification factor as fraction” value (PBP5; 1H DA4α,LA1α,DQ2α) is reported as 0.3043, the “STD % to SP1” value (PBP5; 1H DA4α,LA1α,DQ2α) is reported as 30.434% and the STD amplification factor (PBP5; 1H DA4α,LA1α,DQ2α) is reported as 8.1893. For the same substance, the “STD amplification factor as fraction” value (PBP5; 1H DA4β, DLacβ) was 0.3219, the “STD % to SP1” value (PBP5; 1H DA4β, DLacβ) was 32.1881% and the STD amplification factor (PBP5; 1H DA4β, DLacβ) was 8.661. For the same substance, the “STD amplification factor as fraction” value (PBP5; 1H DA5α) was 0.8446, the “STD % to SP1” value (PBP5; 1H DA5α) was 84.4584% and the STD amplification factor (PBP5; 1H DA5α) was 22.7264. For the same substance, the “STD amplification factor as fraction” value (PBP5; 1H DA5β) was 0.4039, the “STD % to SP1” value (PBP5; 1H DA5β) was 40.3917% and the STD amplification factor (PBP5; 1H DA5β) was 10.8688. The “STD amplification factor as fraction” value (PBP5; 1H DQ2β (first listed)) was 0.9448, the “STD % to SP1” value (PBP5; 1H DQ2β (first listed)) was 94.4801% and the STD amplification factor (PBP5; 1H DQ2β (first listed)) was 25.4231. For the same substance, the “STD amplification factor as fraction” value (PBP5; 1H DQ2β (second listed)) was 1.053, the “STD % to SP1” value (PBP5; 1H DQ2β (second listed)) was 105.321% and the STD amplification factor (PBP5; 1H DQ2β (second listed)) was 28.3401. The “STD amplification factor as fraction” value (PBP5; 1H DQ2γ) was 0.4867, the “STD % to SP1” value (PBP5; 1H DQ2γ) was 48.6725% and the STD amplification factor (PBP5; 1H DQ2γ) was 13.097. For the same substance, the “STD amplification factor as fraction” value (PBP5; 1H K3β) was 0.991, the “STD % to SP1” value (PBP5; 1H K3β) was 99.098% and the STD amplification factor (PBP5; 1H K3β) was 26.6657. For the same substance, the “STD amplification factor as fraction” value (PBP5; 1H K3δ) was 0.802, the “STD % to SP1” value (PBP5; 1H K3δ) was 80.2012% and the STD amplification factor (PBP5; 1H K3δ) was 21.5809. The “STD amplification factor as fraction” value (PBP5; 1H LA1β) was 0.4375, the “STD % to SP1” value (PBP5; 1H LA1β) was 43.7522% and the STD amplification factor (PBP5; 1H LA1β) was 11.773. The “STD amplification factor as fraction” value (PBP5; 1H iNα ,Dlacα,K3α) was 0.4025, the “STD % to SP1” value (PBP5; 1H iNα ,Dlacα,K3α) was 40.2497% and the STD amplification factor (PBP5; 1H iNα ,Dlacα,K3α) was 10.8306. The “STD amplification factor as fraction” value (PBP5; 1H iNβ) was 0.4322, the “STD % to SP1” value (PBP5; 1H iNβ) was 43.2239% and the STD amplification factor (PBP5; 1H iNβ) was 11.6309. The “interaction with PBP5 by CSPs, in words” value (PBP5 (PBP5_37-678)) was “more akin to that of SP1 than SP4”.
